Measurements reported in patent US20220339143A1, “TAK-925 FOR USE IN TREATING NARCOLEPSY” (Takeda Pharmaceutical Company Limited, priority 2019, published 2022).
Where two headings read alike, the source gives them in different places.

Test: Single dose PK in healthy subjects (Cohorts 1, 2, S1 and S2), plasma
Format: in vivo, human
Settings: human, plasma, intravenous
Method: This study investigates (i) the safety and tolerability of Compound A (methyl (2R,3S)-3-((methylsulfonyl)amino)-2-(((cis-4-phenylcyclohexyl)oxy)methyl)piperidine-1-carboxylate) when a single dose given as a 9 hour continuous IV infusion is administered to healthy adults, healthy elderly subjects and patients with narcolepsy type 1 (NT1); (ii) the pharmacokinetics of Compound A when a single dose given as a 9 hour continuous IV infusion is administered to healthy adults, healthy elderly subjects and patients with narcolepsy type 1; and (iii) the pharmacodynamics (PD) effects of Compound A, primarily by evaluation of the sleep latency on MWT when a single dose given as a 9 hour continuous IV infusion is administered to patients with narcolepsy type 1.
Pharmacokinetics: Concentrations of Compound A in plasma, and CSF, and pharmacokinetics parameters.
On average, the time to reach the plateau appeared to be approximately 3 to 4 hours after the start of infusion. […] After switching off the IV infusion, Compound A plasma concentrations declined rapidly and in a biphasic manner with a mean terminal disposition phase t1/2z ranging approximately from 3.4 to 5.1 hours across all doses. […] Table 5 provides a summary of plasma concentrations of Compound A after a single IV infusion in healthy subjects. Table 6 provides a summary of pharmacokinetic parameters of Compound A after a single IV infusion in healthy subjects.

[1] = 112 mg, read-out: Plasma concentration, Median
[2] = 112 mg, read-out: Plasma concentration, Minimum
[3] = 112 mg, read-out: Plasma concentration, Q1
[4] = 112 mg, read-out: Plasma concentration, Q3
[5] = 112 mg, read-out: Plasma concentration, Maximum
[6] = 112 mg, read-out: Plasma concentration, Mean
[7] = 134.4 mg, read-out: Plasma concentration, Maximum
[8] = 134.4 mg, read-out: Plasma concentration, Mean
[9] = 134.4 mg, read-out: Plasma concentration, Median
[10] = 134.4 mg, read-out: Plasma concentration, Minimum
[11] = 134.4 mg, read-out: Plasma concentration, Q1
[12] = 134.4 mg, read-out: Plasma concentration, Q3

Structure (SMILES): COC(=O)N1CCC[C@H](NS(C)(=O)=O)[C@@H]1CO[C@H]1CC[C@@H](c2ccccc2)CC1 [Compound A, methyl (2R,3S)-3-((methylsulfonyl)amino)-2-(((cis-4-phenylcyclohexyl)oxy)methyl)piperidine-1-carboxylate]
- concentration at 1.5 h [1]: 197 ng/mL
- concentration at 1.5 h [2]: 141 ng/mL
- concentration at 1.5 h [3]: 164 ng/mL
- concentration at 1.5 h [4]: 213 ng/mL
- concentration at 2 h [5]: 223 ng/mL
- concentration at 2 h [6]: 200 ng/mL
- concentration at 2 h [1]: 207 ng/mL
- concentration at 2 h [2]: 150 ng/mL
- concentration at 2 h [3]: 195 ng/mL
- concentration at 2 h [4]: 220 ng/mL
- concentration at 3 h [5]: 276 ng/mL
- concentration at 3 h [6]: 222 ng/mL
- concentration at 3 h [1]: 216 ng/mL
- concentration at 3 h [2]: 171 ng/mL
- concentration at 3 h [3]: 209 ng/mL
- concentration at 3 h [4]: 248 ng/mL
- concentration at 4 h [5]: 290 ng/mL
- concentration at 4 h [6]: 224 ng/mL
- concentration at 4 h [1]: 216 ng/mL
- concentration at 4 h [2]: 154 ng/mL
- concentration at 4 h [3]: 215 ng/mL
- concentration at 4 h [4]: 252 ng/mL
- concentration at 6 h [5]: 206 ng/mL
- concentration at 6 h [6]: 189 ng/mL
- concentration at 6 h [1]: 192 ng/mL
- concentration at 6 h [2]: 154 ng/mL
- concentration at 6 h [3]: 186 ng/mL
- concentration at 6 h [4]: 205 ng/mL
- concentration at 8 h [5]: 221 ng/mL
- concentration at 8 h [6]: 194 ng/mL
- concentration at 8 h [1]: 195 ng/mL
- concentration at 8 h [2]: 162 ng/mL
- concentration at 8 h [3]: 176 ng/mL
- concentration at 8 h [4]: 216 ng/mL
- concentration at 9 h [5]: 247 ng/mL
- concentration at 9 h [6]: 216 ng/mL
- concentration at 9 h [1]: 221 ng/mL
- concentration at 9 h [2]: 169 ng/mL
- concentration at 9 h [3]: 192 ng/mL
- concentration at 9 h [4]: 245 ng/mL
- concentration at 0.5 h [7]: 201 ng/mL
- concentration at 0.5 h [8]: 162 ng/mL
- concentration at 0.5 h [9]: 152 ng/mL
- concentration at 0.5 h [10]: 147 ng/mL
- concentration at 0.5 h [11]: 148 ng/mL
- concentration at 0.5 h [12]: 169 ng/mL
- concentration at 1 h [7]: 273 ng/mL
- concentration at 1 h [8]: 204 ng/mL
- concentration at 1 h [9]: 187 ng/mL
- concentration at 1 h [10]: 181 ng/mL
- concentration at 1 h [11]: 181 ng/mL
- concentration at 1 h [12]: 216 ng/mL
- concentration at 1.5 h [7]: 289 ng/mL
- concentration at 1.5 h [8]: 228 ng/mL
- concentration at 1.5 h [9]: 221 ng/mL
- concentration at 1.5 h [10]: 191 ng/mL
- concentration at 1.5 h [11]: 197 ng/mL
- concentration at 1.5 h [12]: 250 ng/mL
- concentration at 2 h [7]: 335 ng/mL
- concentration at 2 h [8]: 248 ng/mL
- concentration at 2 h [9]: 244 ng/mL
- concentration at 2 h [10]: 192 ng/mL
- concentration at 2 h [11]: 199 ng/mL
- concentration at 2 h [12]: 276 ng/mL
- concentration at 3 h [7]: 388 ng/mL
- concentration at 3 h [8]: 288 ng/mL
- concentration at 3 h [9]: 278 ng/mL
- concentration at 3 h [10]: 217 ng/mL
- concentration at 3 h [11]: 260 ng/mL
- concentration at 3 h [12]: 305 ng/mL
- concentration at 4 h [7]: 355 ng/mL
- concentration at 4 h [8]: 294 ng/mL
- concentration at 4 h [9]: 308 ng/mL
- concentration at 4 h [10]: 214 ng/mL
- concentration at 4 h [11]: 256 ng/mL
- concentration at 4 h [12]: 324 ng/mL
- concentration at 6 h [7]: 302 ng/mL
- concentration at 6 h [8]: 248 ng/mL
- concentration at 6 h [9]: 260 ng/mL
- concentration at 6 h [10]: 164 ng/mL
- concentration at 6 h [11]: 206 ng/mL
- concentration at 6 h [12]: 295 ng/mL
- concentration at 8 h [7]: 313 ng/mL
- concentration at 8 h [8]: 262 ng/mL
- concentration at 8 h [9]: 262 ng/mL
- concentration at 8 h [10]: 199 ng/mL
- concentration at 8 h [11]: 242 ng/mL
- concentration at 8 h [12]: 291 ng/mL
- concentration at 9 h [7]: 330 ng/mL
- concentration at 9 h [8]: 292 ng/mL
- concentration at 9 h [9]: 300 ng/mL
- concentration at 9 h [10]: 241 ng/mL
- concentration at 9 h [11]: 268 ng/mL
- concentration at 9 h [12]: 311 ng/mL
- concentration at 0.5 h (180 mg, read-out: Plasma concentration, Maximum): 224 ng/mL
- concentration at 0.5 h (180 mg, read-out: Plasma concentration, Mean): 180 ng/mL
- concentration at 0.5 hr (180 mg, read-out: Plasma concentration, Median): 170 ng/mL
- concentration at 0.5 hr (180 mg, read-out: Plasma concentration, Minimum): 161 ng/mL
- concentration at 0.5 hr (180 mg, read-out: Plasma concentration, Q1): 163 ng/mL
- concentration at 0.5 hr (180 mg, read-out: Plasma concentration, Q3): 194 ng/mL
